According to patent publication US11730723B2, “Compounds and methods for treating viral infections” (priority 2020, dated 2023):
pEC50, pIC50: −log10 of the molar value. Values after ≈ are worked out from the molar mass of the structure shown. Values joined by “and” are separate entries in the source; they are usually repeats but may differ in a detail not shown here. Identical values can stand only once. Like-named read-outs stand apart in the source and are kept apart here.

Key:
HCoV-OC43 [1] = assay: HCoV-OC43 CPE assay in Huh-7 cells (neutral red uptake, 6 days); assay type: cell-based, human coronavirus (HCoV) OC43 strain; details: for Raw OD-Absorbance 490 nm: infected Huh-7, neutral red uptake, individual replicates
HCoV-OC43 [2] = assay: HCoV-OC43 efficacy in H292 cells (MTT, 6 days); assay type: cell-based, HCoV-OC43 (Betacoronavirus 1)
HCoV 229E = HCoV 229E CPE assay in MRC-5 cells (CellTiter Glo); assay type: cell-based, human coronavirus (HCoV) 229E; details: unidentified human coronavirus, MRC5; MRC-5 cells, CellTiter Glo; read-out: HCoV 229E CPE assay EC50
HCoV OC43 = HCoV OC43 CPE assay in Huh7 cells (CellTiter Glo); assay type: cell-based, human coronavirus (HCoV) OC43; details: Betacoronavirus 1, OC43, Huh-7; Huh7 cells, CellTiter Glo; read-out: HCoV OC43 CPE Assay EC50
[3] = test system: MERS coronavirus (EMC strain); assay: microbe, parasite or virus in culture; assay type: cell-based, MERS-CoV; details: Middle East respiratory syndrome-related coronavirus
[4] = Cytotoxicity in HepG2 2.2.15 cells (MTS); assay type: cell-based; details: human, same assay plate
[5] = test system: SARS-CoV-2 (USA-WA1/2020); details: Compound 1 at 25 μM; HCQ at 5 μM; remdesivir 10 μM
Vero E6 cells = details: for viability of Vero E6 cells (percent of vehicle alone): 2-day treatment, mean ± SD of duplicates
in vitro [6] = details: African green monkey
in vitro [7] = details: African green monkey, Vero 76 cells
in vitro [8] = details: African green monkey; remark: listed apart in the source
[9] = test system: SARS-CoV-2 (USA-WA1/2020); assay: microbe, parasite or virus in culture
[10] = Cytotoxicity on Huh7 cells (CellTiter Glo); details: human, Huh7 cells without virus
H292 cells (NCI-H292) = assay: Cytotoxicity in uninfected H292 cells (MTT); details: CC50, uninfected H292 cells
[11] = Cytotoxicity on MRC-5 cells (CellTiter Glo); details: human, MRC-5 cells without virus
[12] = test system: alpha coronavirus 229E (CoV-229E); assay: CoV-229E virus-induced CPE inhibition in MRC-5 cells (XTT); details: 6 days
[13] = test system: HBV wild-type strain ayw1; assay: Primary anti-HBV assay in HepG2 2.2.15 cells (qPCR of HBV DNA); details: Hepatitis B virus, HepG2 2.2.15, 144 h
Huh-7 cells = assay: Cytotoxicity / viability of uninfected Huh-7 cells (XTT, 6 days); details: 6 days, raw absorbance 490 nm, individual replicates, listed as Compd. 1
[14] = test system: dengue virus (DENV) serotype 2 strain D2S221; assay: Dengue virus D2S221 inhibition assay in Vero cells (immunostaining); details: read-out: D2S221 IC50

Work on `CC(C)C[C@](C)(N)COc1ccc(-c2ccnc(C(F)F)c2)nc1C(F)F` [Compound 1, (S)-1-((2′,6-bis(difluoromethyl)-[2,4′-bipyridin]-5-yl)oxy)-2,4-dimethylpentan-2-amine] yielded a pEC50 (HCoV-OC43 [1]; Betacoronavirus 1, OC43, 144 h, Huh-7 cells, 6 days, neutral red) of less than 4.52, an inhibition at 0.01 µM (HCoV-OC43 [1]; Betacoronavirus 1, OC43, Huh-7, 0.01 μM, mean of duplicates, read-out: Inhibition of OC43 Virus-Induced CPE in Huh-7 Cells) of -0.4% and an inhibition at 0.04 µM (HCoV-OC43 [1]; Betacoronavirus 1, OC43, Huh-7, 0.04 μM, mean of duplicates, read-out: Inhibition of OC43 Virus-Induced CPE in Huh-7 Cells) of -3%. It also gave an inhibition at 0.12 µM (HCoV-OC43 [1]; Betacoronavirus 1, OC43, Huh-7, 0.12 μM, mean of duplicates, read-out: Inhibition of OC43 Virus-Induced CPE in Huh-7 Cells) of -1.2%, an inhibition at 0.4 µM (HCoV-OC43 [1]; Betacoronavirus 1, OC43, Huh-7, 0.4 μM, mean of duplicates, read-out: Inhibition of OC43 Virus-Induced CPE in Huh-7 Cells) of -1.8% and an inhibition at 1.1 µM (HCoV-OC43 [1]; Betacoronavirus 1, OC43, Huh-7, 1.1 μM, mean of duplicates, read-out: Inhibition of OC43 Virus-Induced CPE in Huh-7 Cells) of 5.4%. The inhibition at 3.3 µM (HCoV-OC43 [1]; Betacoronavirus 1, OC43, Huh-7, 3.3 μM, mean of duplicates, read-out: Inhibition of OC43 Virus-Induced CPE in Huh-7 Cells) was 25.2%, the inhibition at 10 µM (HCoV-OC43 [1]; Betacoronavirus 1, OC43, Huh-7, 10 μM, mean of duplicates, read-out: Inhibition of OC43 Virus-Induced CPE in Huh-7 Cells) was 30.7% and the inhibition at 30 µM (HCoV-OC43 [1]; Betacoronavirus 1, OC43, Huh-7, 30 μM, mean of duplicates, read-out: Inhibition of OC43 Virus-Induced CPE in Huh-7 Cells) was -7.1%. For the same compound, the “Raw OD-Absorbance 490 nm” value (HCoV-OC43 [1]; 0.01 μM, listed as Compd. 1) was 0.102 and 0.101, the “Raw OD-Absorbance 490 nm” value (HCoV-OC43 [1]; 0.04 μM, listed as Compd. 1) was 0.078 and 0.089 and the “Raw OD-Absorbance 490 nm” value (HCoV-OC43 [1]; 0.12 μM, listed as Compd. 1) was 0.092 and 0.099. For the same compound, the “Raw OD-Absorbance 490 nm” value (HCoV-OC43 [1]; 0.4 μM) was 0.092, the “Raw OD-Absorbance 490 nm” value (HCoV-OC43 [1]; 1.1 μM, listed as Compd. 1) was 0.115 and 0.165 and the “Raw OD-Absorbance 490 nm” value (HCoV-OC43 [1]; 3.3 μM, listed as Compd. 1) was 0.292 and 0.253. For the same compound, the “Raw OD-Absorbance 490 nm” value (HCoV-OC43 [1]; 10 μM, listed as Compd. 1) was 0.322 and 0.297, the “Raw OD-Absorbance 490 nm” value (HCoV-OC43 [1]; 30 μM, listed as Compd. 1) was 0.057 and 0.056 and the pEC50 (HCoV-OC43 [2]; Betacoronavirus 1, NCI-H292, EC50, HCoV-OC43 infected H292 cells, MTT, read-out: Efficacy) was 5.84. For the same compound, the “antiviral activity against β-coronavirus OC43 in H292 cells (in words)” value (HCoV-OC43 [2]; viability of infected H292 cells, FIG. 6) was “significant antiviral effect”, the pEC50 (HCoV 229E) was 5.44 and the pEC50 (HCoV OC43) was 5.22. It also gave an EC50 ([3]; Vero 76, read-out: EC50 measured by microscopic visual assay) of 6.4 µg/mL (≈ 16.6 µM), an EC50 ([3]; Vero 76, read-out: EC50 measured by neutral red assay) of 5.4 µg/mL (≈ 14 µM) and a CC50 [4] of 29.3 µM. The “prevention of the SARS-CoV-2 induced CPE (in words)” value [5] was “partially prevented the virus induced cytopathic effect”, the “viability of Vero E6 cells (percent of vehicle alone)” value (Vero E6 cells; 1.56 μM) was 101.0 ± 5.2% and the “viability of Vero E6 cells (percent of vehicle alone)” value (Vero E6 cells; 3.13 μM) was 97.1 ± 5.2%. The “viability of Vero E6 cells (percent of vehicle alone)” value (Vero E6 cells; 6.3 μM) was 86.2 ± 3.2%, the “viability of Vero E6 cells (percent of vehicle alone)” value (Vero E6 cells; 12.5 μM) was 83.3 ± 1.7% and the “viability of Vero E6 cells (percent of vehicle alone)” value (Vero E6 cells; 25 μM) was 80.7 ± 2.4%. The “viability of Vero E6 cells (percent of vehicle alone)” value (Vero E6 cells; 50 μM) was 17.3 ± 8.4%, the “viability of Vero E6 cells (percent of vehicle alone)” value (Vero E6 cells; 100 μM) was 2.0 ± 0.2% and the “viability of Vero E6 cells (in words)” value (Vero E6 cells; Compound 1 at concentrations lower than 25 μM, HCQ at all concentrations tested) was “not significantly changed”. The CC50 (in vitro [6]) was 37 µM, the CC50 (in vitro [7]; CC50 measured by microscopic visual assay) was 22 µg/mL (≈ 57.1 µM) and the CC50 (in vitro [7]; CC50 measured by neutral red assay) was 11 µg/mL (≈ 28.5 µM). It also gave a CC50 at 4 days (in vitro [8]) of 13.5 µM, a pIC50 ([9]; Severe acute respiratory syndrome coronavirus 2, Vero C1008, 48 h, read-out: Live SARS-CoV-2 Antiviral Assay IC50) of 4.60 to 4.90 and a viability at 25 µM ([9]; Severe acute respiratory syndrome coronavirus 2, Vero C1008, read-out: cell viability in the infected culture, of the levels observed in uninfected cells) of 80%. The CC50 [10] was 13.2 µM, the Cytotoxicity (H292 cells (NCI-H292)) was 57.72 µM and the CC50 [11] was 15 µM. For the same compound, the pEC50 [12] was ~5.62 and 5.62, the pEC50 [13] was 5.20 and the EC90 [13] was greater than 100 µM. For the same compound, the “Viability of Huh-7 Cells (A490)” value (Huh-7 cells; 0.01 μM) was 0.749 and 0.746, the “Viability of Huh-7 Cells (A490)” value (Huh-7 cells; 0.04 μM) was 0.731 and 0.759 and the “Viability of Huh-7 Cells (A490)” value (Huh-7 cells; 0.12 μM) was 0.822 and 0.825. For the same compound, the “Viability of Huh-7 Cells (A490)” value (Huh-7 cells; 0.37 μM) was 0.886 and 0.928, the “Viability of Huh-7 Cells (A490)” value (Huh-7 cells; 1.1 μM) was 0.925 and 0.996 and the “Viability of Huh-7 Cells (A490)” value (Huh-7 cells; 3.3 μM) was 1.017 and 1.085. For the same compound, the “Viability of Huh-7 Cells (A490)” value (Huh-7 cells; 10 μM) was 0.915 and 1.016, the “Viability of Huh-7 Cells (A490)” value (Huh-7 cells; 30 μM) was 0.052 and 0.053 and the “Viability of Huh-7 Cells (A490)” value (Huh-7 cells; 90 μM) was 0.055 and 0.054. The pIC50 [14] was 5.18.
